# Patent US20220230723A1, “Electronically Supervised Administration of a Pharmaceutical Composition” (Celon Pharma S.A., priority 2019, published 2022)
# Structures can show the parent of a compound that is named as a salt.
# Legend:
# [1] = cited from earlier work
# [2] = cited from earlier work; remark: listed apart in the source
# [3] = cited from earlier work; remark: listed apart in the source
# [4] = nebulized saline solution, inhalation; cited from earlier work
# [5] = Literature pharmacokinetics after intravenous infusion; type: in vivo; conditions: human, plasma, 0.2 mg/kg; 0.20 mg/kg 40 minutes intravenous infusion, predicted on the basis of literature data
# Description: Administration route with currently expected minimum level of metabolites is an intravenous one. After intravenous infusion of racemic ketamine at 0.5 mg/kg for 40 minutes, the parent drug maintains its systemic concentration about 200 ng/ml for about 40 minutes, afterwards the concentration falls down quickly with a half-period below 2 hours. Simultaneously, norketamine reaches its maximum concentration at the level of 10-20% of ketamine concentration. The percentage of area-under-curve (AUC) norketamine to ketamine is about 20-40%.
# NMDA receptor = conditions: cited from earlier work
# [6] = after intravenous infusion of racemic ketamine
# [7] = after oral administration of ketamine
smiles,measurement,setting,value
CNC1(c2ccccc2Cl)CCCCC1=O (racemic) [ketamine],half-period of concentration fall,[1]; after intravenous infusion 0.5 mg/kg for 40 minutes,below 2 hours
same,systemic concentration of parent drug,"[1]; intravenous infusion 0.5 mg/kg for 40 minutes, maintained about 40 minutes",about 200 ng/ml
same,bioavailability,[2]; orally administered,16-20%
same,share of patients with treatment-resistant depression responsive to treatment,"[3]; human, in vivo",about ⅔
CN[C@]1(c2ccccc2Cl)CCCCC1=O [esketamine hydrochloride],inhaled bioavailability,[4],reduced due to both dose-independent and dose-dependent impairment of pulmonary uptake
CN[C@]1(c2ccccc2Cl)CCCCC1=O [esketamine],concentration at 40 min,[5],60 to 100 ng/mL
same,antidepressant effects,"[3]; TRD patients, 40-minute i.v. infusion of 0.20 mg/kg or 0.40 mg/kg (Singh et al.)",rapid onset of robust antidepressant effects
NC1(c2ccccc2Cl)CCCCC1=O (stereo not drawn) [norketamine],maximum concentration as % of ketamine concentration,[1]; [6],10-20%
same,percentage of AUC norketamine to ketamine,[1]; [6],20-40%
same,activity on NMDA receptor relative to ketamine,NMDA receptor,many times less active than ketamine
same,AUC for norketamine relative to ketamine,[2]; [7],exceeding 1000%
same,norketamine level as % of ketamine level,[2]; [7],500-1000%
